For 15 compounds, Ki and IC50 results are on record in ChEMBL document CHEMBL1139321, “Discovery of novel spirocyclopropyl hydroxamate and carboxylate compounds as TACE inhibitors” (Bioorg Med Chem Lett, 2009).

Assay [1] deals with Disintegrin and metalloproteinase domain-containing protein 17 (Homo sapiens, UniProt P78536).
Description: Inhibition of TACE catalytic domain by FRET assay
For the next assay, the system named is Blood. Put plainly: Inhibition of LPS-induced TNFalpha production in human whole blood after 1 hr by ELISA. It is filed as functional, tissue-based. On the technique in general: An ELISA detects its analyte on a solid surface through an enzyme-linked reagent.

Chain of Disintegrin and metalloproteinase domain-containing protein 17 (P78536 whole entry, the tested form may be a part): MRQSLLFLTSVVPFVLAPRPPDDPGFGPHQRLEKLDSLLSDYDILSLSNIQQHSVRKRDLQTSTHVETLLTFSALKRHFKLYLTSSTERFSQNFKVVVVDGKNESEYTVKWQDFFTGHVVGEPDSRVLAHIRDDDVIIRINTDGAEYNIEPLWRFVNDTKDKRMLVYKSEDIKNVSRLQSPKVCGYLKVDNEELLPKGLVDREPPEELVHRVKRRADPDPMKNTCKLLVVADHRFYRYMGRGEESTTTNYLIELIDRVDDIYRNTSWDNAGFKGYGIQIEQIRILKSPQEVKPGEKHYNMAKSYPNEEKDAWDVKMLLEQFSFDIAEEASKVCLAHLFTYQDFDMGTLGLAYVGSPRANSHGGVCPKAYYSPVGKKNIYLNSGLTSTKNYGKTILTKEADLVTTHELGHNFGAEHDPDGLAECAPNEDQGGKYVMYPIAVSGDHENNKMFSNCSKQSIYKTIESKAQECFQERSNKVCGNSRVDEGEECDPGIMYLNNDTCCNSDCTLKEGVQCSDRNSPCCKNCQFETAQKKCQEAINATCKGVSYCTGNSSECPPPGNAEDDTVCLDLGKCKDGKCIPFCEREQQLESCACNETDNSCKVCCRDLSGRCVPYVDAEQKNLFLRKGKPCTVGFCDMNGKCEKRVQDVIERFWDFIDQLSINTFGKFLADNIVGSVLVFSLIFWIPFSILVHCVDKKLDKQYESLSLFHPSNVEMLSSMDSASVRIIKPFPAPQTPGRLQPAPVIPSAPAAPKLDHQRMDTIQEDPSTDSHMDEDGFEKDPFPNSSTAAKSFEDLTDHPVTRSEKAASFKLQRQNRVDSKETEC

By Ki is commonly meant a measure of affinity in units of concentration, obtained from inhibition or displacement. For orientation: IC50 means the concentration at which inhibition is half-maximal. `O=C(O)[C@H]1C[C@@]12CC(c1ccc(OCc3cc(-c4ccccc4)nc4ccccc34)c(F)c1)NC2=O` (mixture of isomers) registered a Ki in assay [1] of 0.04 µM. In the assay on Blood, the IC50 was greater than 0.1 µM.
As to `O=C(NO)[C@H]1C[C@@]12CC(c1ccc(OCc3cc(-c4cccnc4)nc4ccccc34)cc1)NC2=O` (mixture of isomers), the Ki in assay [1] came to 0.032 µM.
The compound `O=C(O)[C@H]1C[C@@]12CC(c1ccc(OCc3cc(C(F)(F)F)nc4ccccc34)cc1)NC2=O` (mixture of isomers) displayed an inhibitory constant (Ki) in assay [1] of 2.14 µM. Besides, in the assay on Blood, the IC50 was greater than 0.1 µM.
Take `O=C(NO)[C@H]1C[C@@]12CC(c1ccc(OCc3cc(-c4ccncc4)nc4ccccc34)cc1)NC2=O` (stereo partly specified): the affinity in assay [1] corresponds to a Ki of 0.033 µM.
On to `O=C(O)[C@H]1C[C@@]12CC(c1ccc(OCc3cc(-c4cccnc4)nc4ccccc34)cc1)NC2=O` (mixture of isomers), for which the affinity in assay [1], expressed as Ki, was 3.22 µM.
With `O=C(NO)[C@H]1C[C@@]12CC(c1ccc(OCc3cc(-c4ccccc4)nc4ccccc34)cc1)NC2=O` (mixture of isomers), the Ki in assay [1] was determined as 0.03 µM. In addition, the IC50 in the assay on Blood was greater than 0.1 µM.
The like results for `O=C(O)[C@H]1C[C@@]12CC(c1ccc(OCc3cc(-c4ccccc4)nc4ccccc34)cc1)NC2=O` (mixture of isomers) were, in that order, 0.143 µM and greater than 0.1 µM.
`O=C(O)[C@H]1C[C@@]12CC(c1ccc(OCc3cc(-c4ccncc4)nc4ccccc34)cc1)NC2=O` (mixture of isomers) showed a Ki in assay [1] of 0.673 µM.
Consider `COC(=O)[C@H]1C[C@@]12CC(c1ccc(OCc3cc(-c4ccccc4)nc4ccccc34)c(F)c1)N(C)C2=O` (mixture of isomers), for which the Ki in assay [1] was greater than 50 µM.
For the compound `Cc1cc(COc2ccc(C3C[C@@]4(C[C@@H]4C(=O)NO)C(=O)N3)cc2)c2ccccc2n1` (stereo partly specified), the Ki in assay [1] was found to be 0.032 µM.
Take `CN1C(=O)[C@@]2(CC1c1ccc(OCc3cc(-c4ccccc4)nc4ccccc34)c(F)c1)C[C@@H]2C(=O)NO` (mixture of isomers): the affinity in assay [1], expressed as Ki, was 0.137 µM. Compared with the last compound, the Ki is about 4.3-fold higher.
Still for that read-out and setting: in the case of `Cc1cc(COc2ccc(C3C[C@@]4(C[C@@H]4C(=O)O)C(=O)N3)cc2)c2ccccc2n1` (mixture of isomers) it was 3.07 µM.
Compound `O=C(NO)[C@H]1C[C@@]12CC(c1ccc(OCc3cc(-c4ccccc4)nc4ccccc34)c(F)c1)NC2=O` (mixture of isomers) yielded a Ki in assay [1] of 0.0067 µM. Also, the IC50 in the assay on Blood was greater than 0.1 µM.
In the case of `CN1C(=O)[C@@]2(CC1c1ccc(OCc3cc(-c4ccccc4)nc4ccccc34)c(F)c1)C[C@@H]2C(=O)O` (mixture of isomers), affinity in assay [1] was put at a Ki of 0.094 µM.
In assay [1], `O=C(NO)[C@H]1C[C@@]12CC(c1ccc(OCc3cc(C(F)(F)F)nc4ccccc34)cc1)NC2=O` (mixture of isomers) gave a Ki of 0.053 µM. The IC50 in the assay with Blood was greater than 0.1 µM.
